# pKi: −log10 of the molar value. Like-named read-outs stand apart in the source and are kept apart here. Marks after values point to notes of the source that are not given here.
# Key:
# [1] = tested on: P-type ATPase; design: method as in PMID 29313547; conditions: cited from earlier work
# [2] = tested on: Ca^2+-ATPase; design: method as in PMID 29313547; conditions: cited from earlier work
# [3] = tested on: aquaporin-3; design: method as in PMID 32252345; conditions: cited from earlier work
# [4] = biological target: T1, AbPPO4 (Agaricus bisporus, UniProt C7FF05, S179N/V121A); format: biochemical; design: α · Ki: unit not given here; conditions: for Inhibition type / α (inhibition parameter) from the Lineweaver–Burk intercepts / pKi / α (inhibition parameter) from activity plot: 50 mM Na-citrate pH 6.8; for Inhibition type: L-DOPA substrate; for α · Ki: from Lineweaver-Burk ordinate intercepts vs [I], [S] 0.4-[…] (Table S5); for α (inhibition parameter) from activity plot: hyperbolic fit
# T1 construct: GST (glutathione-S-transferase) (N, cleaved yes); made in house; host or cells: E. coli BL21(DE3)
# Protocol: AbPPO4 was purified and activated according to Pretzler et al.[15]. […] The diphenolase activity of tyrosinase was monitored using 1 mM L-DOPA (Fig. S1A) as the substrate. Considering that the Wells–Dawson POT stability is pH and possibly time dependent, a speciation study was performed which is detailed in the paragraph "Speciation of Wells–Dawson POT by ^183W-NMR and ^31P-NMR analyses at pH 6.8". The concentration of the investigated Wells–Dawson phosphotungstates was in the range between 0 and 5 mM. If enzymatic inhibition was observed, data were taken in triplicates and fitted with a hyperbolic function (cf. SI Eq. (5)) from a mixed inhibition model to evaluate the Ki and α-parameters. […] (Fig. S1B) was additionally tested and evaluated applying exactly the same mathematical model.
# The type of enzymatic inhibition is usually investigated by linear plots according to Lineweaver–Burk, also allowing for further validation of the inhibitory constant Ki.[9] […] The slopes (SI Eq. (13), insets in Figs. S14–S17) and ordinate intercepts of these regression lines were further evaluated to validate the inhibitory constant Ki and the α-parameter from the non-linear regression procedure. […] Similarly, the Lineweaver–Burk ordinate intercepts were evaluated for the α-parameter (cf. Table S5 and Table 1).
# UV–VIS measurements were carried out on a Shimadzu UV 2401PC following the specific absorption of dopachrome at 475 nm (ε = 3700 M^−1 cm^−1[7]). For all measurements, 50 mM Na-citrate at pH 6.8 was used as the buffer agent to ensure physiological conditions. The stock solutions of POTs were prepared on the day of measurements and used within 3 days.
# For a general 1 mL reaction setup in a polystyrene cuvette, 1 µg/mL AbPPO4 (~ 23 nM) was used to catalyze the reaction. The relative inhibition was investigated using 1 mM L-DOPA as the substrate and applying an inhibitor concentration range from 0 to 5 mM to obtain activity curves. For the Lineweaver–Burk plots, a L-DOPA concentration range of 0.4–1.5 mM was assayed for three different POT concentrations, respectively. […]
# is the enzymatic reaction velocity, the maximal enzymatic velocity of the enzyme, the concentration for the half-maximal velocity and the substrate concentration. If enzyme inhibition is taken into account, apparent values (e.g., , , ) are employed. For all inhibition mechanisms the apparent maximal velocity is given by and the apparent Michalis-Menten constant is Equations (3) and (2) are inserted into equation (1). To obtain the relative inhibition (in %), is divided by the uninhibited enzymatic velocity .
# Herein, [I] refers to the inhibitor concentration, Ki is the inhibition constant measuring the […]
# The three ideal inhibition types are reflected by three limiting conditions for α, with α as quotient of the inhibition constant of the uncompetitive and competitive inhibition:
# (A) 0 < α <<1: uncompetitive inhibition
# (B) α = 1: non-competitive inhibition
# (C) α >> 1: competitive inhibition […]
# uncompetitive and non-competitive inhibition modes.
# The concentration of L-DOPA was kept constant at 1 mM for all experiments.
# The final hyperbolic equation (5) was used for the curve
# [5] = L-DOPA 0.4-[…], three inhibitor concentrations, read-out: Ki (inhibition constant) from the Lineweaver–Burk slopes
# [6] = hyperbolic fit of mixed inhibition model, 1 mM L-DOPA, 0-5 mM inhibitor, read-out: Ki (inhibition constant) from activity plot
# T1 sequence (C7FF05 1-383 V121A/S179N): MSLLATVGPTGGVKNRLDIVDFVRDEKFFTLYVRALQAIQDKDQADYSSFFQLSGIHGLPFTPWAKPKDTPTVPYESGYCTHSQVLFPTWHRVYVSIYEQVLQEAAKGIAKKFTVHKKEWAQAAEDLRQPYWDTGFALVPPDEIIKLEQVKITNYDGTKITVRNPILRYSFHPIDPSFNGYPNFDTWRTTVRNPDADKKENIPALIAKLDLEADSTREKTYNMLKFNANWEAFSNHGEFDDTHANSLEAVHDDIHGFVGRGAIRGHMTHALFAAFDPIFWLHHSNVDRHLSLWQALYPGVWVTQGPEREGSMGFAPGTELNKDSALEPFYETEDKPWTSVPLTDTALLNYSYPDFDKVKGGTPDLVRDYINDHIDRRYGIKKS
Substance,Inhibition of P-type ATPase [1],Inhibition of Ca2+-ATPase [2],Inhibition of aquaporin-3 [3],Inhibition type [4],α (inhibition parameter) from the Lineweaver–Burk intercepts ([4]; L-DOPA 0.4-[…]),"pKi [4, 5]",α · Ki [4],"pKi [4, 6]",α (inhibition parameter) from activity plot ([4]; 1 mM L-DOPA)
(NH4)12[H2P^V2W^VI12O48]·24H2O [[P2W12]^12−],inhibited,inhibited,inhibited,mixed-type inhibition,0.28,2.25,1.58,2.12,0.017
K6[α/β-P^V2W^VI18O62]·14H2O [[P2W18]^6−],inhibited,inhibited,inhibited,mixed-type inhibition,0.22,1.89,2.85,2.01,0.013
K10[α2-P^V2W^VI17O61]·20H2O [[P2W17]^10−],–,–,–,mixed-type inhibition,"0.01^a, 0.01^b",1.97,0.10,2.19,"0.01^a, 0.01^b"
K12[P^V2W^VI15O56]·24H2O [[P2W15]^12−],–,–,–,mixed-type inhibition,0.20,1.97,2.14,1.87,0.003

# — article PMC8481536, “Wells–Dawson phosphotungstates as mushroom tyrosinase inhibitors: a speciation study” (Scientific Reports, 2021)
